Measurements: patent US8436049B2, “Uses of pentamidine and related compounds” (State of Oregon Acting By and Through the State Board of …, priority 2008, dated 2013)
Where “and” joins values, the source holds several entries; their conditions need not be identical. Equal values may be shown once.

Experiments:
[1] = target: T1, MBNL-CUG RNA complex (Homo sapiens, UniProt Q9NR56); assay: Gel shift assay, disruption of MBNL binding to short CUG repeat RNA
T1 construct: Both the full length MBNL and MBNL (1-260) constructs were cloned using BamHI and NotI restriction sites; GST (N, cleaved yes); made in house; host or cells: E. coli BL21-Star
T1 sequence (Q9NR56 1-382 isoform Q9NR56-5): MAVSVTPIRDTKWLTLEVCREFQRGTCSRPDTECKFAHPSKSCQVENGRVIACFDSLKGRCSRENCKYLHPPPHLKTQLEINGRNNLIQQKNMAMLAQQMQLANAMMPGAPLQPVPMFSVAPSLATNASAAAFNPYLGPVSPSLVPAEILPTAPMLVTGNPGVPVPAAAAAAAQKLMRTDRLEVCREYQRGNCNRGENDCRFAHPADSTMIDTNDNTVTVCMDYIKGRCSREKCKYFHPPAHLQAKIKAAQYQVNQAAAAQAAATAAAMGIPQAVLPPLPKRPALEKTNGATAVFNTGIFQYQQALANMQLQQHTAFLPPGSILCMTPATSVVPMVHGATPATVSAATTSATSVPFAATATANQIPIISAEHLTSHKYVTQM
Procedure: MBNL1 (MBNL) was PCR amplified and was cloned into GST fusion vector pGEX-6P-1 (GE Healthcare, Piscataway, N.J.), using DNA encoding a MBNL isoform with amino acids 1-382). Both the full length MBNL and MBNL (1-260) constructs were cloned using BamHI and NotI restriction sites. Using BL21-Star expression cells (Invitrogen, Carlsbad, Calif.), protein expression was induced with 0.25 mM IPTG at an OD600 of about 0.5-1, for 3-4 hours at 37° C. Cells were lysed in 30 ml of buffer (500 mM NaCl, 25 mM Tris pH 7.5, 10 mM β-mercaptoethanol (BME) and 5% glycerol) using 1 mg/ml of lysozyme, followed by sonication (3×30 seconds). Cell extract was centrifuged for 15 minutes at 17,000 rpm, and lysate which contained GST-MBNL was collected. GST-MBNL was bound to GST affinity beads for 30 minutes at 4° C. […] The protein was then run over an anion exchange (Q) column. […] MBNL was collected in the column flow through, concentrated and dialyzed into storage buffer (30% glycerol, 300 mM NaCl, 20 mM Tris pH 7.5, 5 mM BME) and stored at −80° C. Aliquots were removed from −80° C. and temporarily placed at −20° C. until used for an experiment.
All RNA substrates that were radiolabeled were ordered from IDT DNA (Coralville, Iowa), and 5′ end-labeled using [γ-^32P]ATP. All radiolabeled RNAs were purified on 8% polyacrylamide denaturing gels.
Solutions for the protein-RNA binding experiments contained 125 mM NaCl, 5 mM MgCl2, 20 mM Tris (pH 7.5), 7.5% glycerol, 2 mg/ml bovine serum albumin, and 0.1 mg/ml heparin. Prior to incubation, RNA substrates were annealed by incubation at 95° C. for 2 minutes and then placed directly on ice for 20 minutes in 66 mM NaCl, 6.7 mM MgCl2, and 27 mM Tris (pH 7.5). Protein was then added to the RNA in the presence or absence of the small molecule. The binding reaction was carried out in a 10 μL volume and was incubated for 10 minutes at room temperature before 2-4 μL were loaded on a pre-chilled 4° C. gel. RNA and RNA-protein complexes were separated on 3% acrylamide (37.5:1), 0.3% agarose (low melting point), 0.5× Tris-Borate (TB) gels, run for approximately 2-3 hours at 4° C. at 25-50 volts. Gels were dried and autoradiographed. For the neomycin B and CUG8 gel shift, an 8% acrylamide (29:1), 0.5×TB gel was used and run for 3 hours at 4° C. at 175 volts. All small molecules were dissolved in either water or ethanol, according to the manufacturer's guidance for solubility.
(§1) For binding curves, gels were quantified using ImageQuant® software (Molecular Dynamics, Piscataway, N.J.). The percent RNA bound was determined by taking the ratio of RNA-protein complex to total RNA, per lane. Any counts in the well were discarded as it was unapparent if the RNA was bound by protein, small molecule or was in an aggregate. Binding curves were graphed using KaleidaGraph software (Synergy Software, Reading, Pa.). For the neomycin B and CUG8 gel shift, the apparent Kd was determined using Equation 1, where Y=fraction bound, m0=small molecule concentration, m1=total RNA concentration, and m2=Kd.
For determining the EC50, Equation 3 was used, where m0=small molecule concentration, m1=EC50, m2=Hill coefficient, and m3=fraction MBNL bound without small molecule present. Y=m3/[1+(m0/m1)^m2] Equation 3 Results

[2] = target: T2, MBNL-cTNT interaction (Homo sapiens, UniProt Q9NR56); assay: Gel shift assay, disruption of MBNL binding to cTNT pre-mRNA site; conditions: read-out: EC50 for disruption of MBNL binding to cTNT target construct
T2 construct: Both the full length MBNL and MBNL (1-260) constructs were cloned using BamHI and NotI restriction sites; GST (N, cleaved yes); made in house; host or cells: E. coli BL21-Star
T2 sequence (Q9NR56 1-382 isoform Q9NR56-5): T1 sequence (Q9NR56 1-382 isoform Q9NR56-5)
Procedure: Solutions for the protein-RNA binding experiments contained 125 mM NaCl, 5 mM MgCl2, 20 mM Tris (pH 7.5), 7.5% glycerol, 2 mg/ml bovine serum albumin, and 0.1 mg/ml heparin. Prior to incubation, RNA substrates were annealed by incubation at 95° C. for 2 minutes and then placed directly on ice for 20 minutes in 66 mM NaCl, 6.7 mM MgCl2, and 27 mM Tris (pH 7.5). Protein was then added to the RNA in the presence or absence of the small molecule. The binding reaction was carried out in a 10 μL volume and was incubated for 10 minutes at room temperature before 2-4 μL were loaded on a pre-chilled 4° C. gel. […]
as §1, with “Any counts in the well were discarded as it was unapparent if the RNA was bound by protein, small molecule or was in an aggregate.” left out, “m2=Kd. […]” for “m2=Kd.”
Pentamidine has been shown previously to bind to other RNAs and DNAs (Zhang et al., RNA 6:937-951, 2000); therefore, we determined pentamidine binding to an endogenous target of MBNL. […]

[3] = mouse, in vivo
Procedure: Mouse handling and experimental procedures were conducted in accordance with the Association for Assessment and Accreditation of Laboratory Animal Care. HSA^LR transgenic mice in line 20b expressing human skeletal actin mRNA with ˜250 CUG repeats in the 3′ UTR were used (Mankodi et al., Science 289:1769-1772, 2000). Age- and gender-matched HSA^LR mice were injected intraperitoneally with pentamidine or saline (control). For a low-dose regimen, 25 mg/kg of pentamidine was administrated twice daily for 5 days. For a higher-dose regimen, 40 mg/kg of pentamidine was injected once daily for 7 days. Mice were sacrificed one day after the last injection, and vastus muscle was obtained for splicing analysis. […] The PCR products were analyzed on agarose gels and scanned with a laser fluorimager (Typhoon, GE Healthcare, Piscataway, N.J.). Differences between the two groups were evaluated by Student's t-test.
The ability of pentamidine to rescue mis-splicing in a mouse model (HSA^LR) where CUG repeats are expressed was tested. Pentamidine was administered by intraperitoneal injection in two dosage regimens, and mis-splicing of the Clc-1 and Serca1 pre-mRNAs was measured.

N=C(N)c1ccc(OCCCCCOc2ccc(C(=N)N)cc2)cc1 [pentamidine]
Disruption of the MBNL-CUG interaction ([1]; gel shift screen, increasing amounts of small molecule): disrupt the MBNL-CUG interaction at micromolar concentrations
EC50 ([1]; gel shift, short CUG repeat RNA (CUG4), read-out: EC50 for disruption of MBNL binding to CUG repeat construct): ~58 µM and 58 µM
EC50 [2]: ~85 µM and 85 µM
Toxicity in mice [3]: substantial toxicity
